Data as given in ChEMBL document CHEMBL2417513, “Selective activity of 2,4-diaryl-1,2,3,4-tetrahydroquinolines on Trypanosoma cruzi epimastigotes and amastigotes expressing β-galactosidase” (Bioorg Med Chem Lett, 2013).

Key:
[1] = Cytotoxicity against mouse NCTC-929 cells after 48 hrs by resazurin based fluorescence assay; format: cell-based; settings: for CC50 at 48 h: NCTC-929 cells, read-out: LC50; for LC50: nctc-929, 48 h
[2] = Cytotoxicity against mouse NCTC-929 cells at 256 uM after 48 hrs by resazurin based fluorescence assay; format: cell-based; settings: nctc-929, 48 h
Trypanosoma cruzi [3] = assay: Antiparasitic activity against epimastigotes of Trypanosoma cruzi CL Brener expressing Escherichia coli lacZ gene […] assessed as parasite growth inhibition at 32 uM after 72 hrs by colorimetric assay; format: functional; design: scale not given: the % may be the effect or the level left
Trypanosoma cruzi [4] = assay: Antiparasitic activity against amastigotes of Trypanosoma cruzi CL Brener expressing Escherichia coli lacZ gene infected in mouse NCTC-929 cells assessed as parasite growth inhibition after 7 days by colorimetric assay; format: functional, organism-based; settings: NCTC-929, 168 h
[5] = Selectivity index, ratio of LC50 for mouse NCTC-929 cells to IC50 for epimastigotes of Trypanosoma cruzi CL Brener; format: toxicity, cell-based; settings: read-out: Ratio LC50/IC50
Trypanosoma cruzi [6] = assay: Antiparasitic activity against epimastigotes of Trypanosoma cruzi CL Brener expressing Escherichia coli lacZ gene […] assessed as parasite growth inhibition after 72 hrs by colorimetric assay; format: functional, organism-based
[7] = Selectivity index, ratio of LC50 for mouse NCTC-929 cells to IC50 for amastigotes of Trypanosoma cruzi CL Brener; format: toxicity, cell-based; settings: read-out: Ratio LC50/IC50
Trypanosoma cruzi [8] = assay: Antiparasitic activity against amastigotes of Trypanosoma cruzi CL Brener expressing Escherichia coli lacZ gene infected in mouse NCTC-929 cells assessed as parasite growth inhibition at 4 uM after 7 days by colorimetric assay; format: functional; design: scale not given: the % may be the effect or the level left
Trypanosoma cruzi [9] = assay: Antiparasitic activity against amastigotes of Trypanosoma cruzi CL Brener expressing Escherichia coli lacZ gene infected in mouse NCTC-929 cells assessed as parasite growth inhibition at 8 uM after 7 days by colorimetric assay; format: functional; design: scale not given: the % may be the effect or the level left
Trypanosoma cruzi [10] = assay: Antiparasitic activity against amastigotes of Trypanosoma cruzi CL Brener expressing Escherichia coli lacZ gene infected in mouse NCTC-929 cells assessed as parasite growth inhibition at 32 uM after 7 days by colorimetric assay; format: functional; design: scale not given: the % may be the effect or the level left
Trypanosoma cruzi [11] = assay: Antiparasitic activity against amastigotes of Trypanosoma cruzi CL Brener expressing Escherichia coli lacZ gene infected in mouse NCTC-929 cells assessed as parasite growth inhibition at 16 uM after 7 days by colorimetric assay; format: functional; design: scale not given: the % may be the effect or the level left
Trypanosoma cruzi [12] = assay: Antiparasitic activity against amastigotes of Trypanosoma cruzi CL Brener expressing Escherichia coli lacZ gene infected in mouse NCTC-929 cells assessed as parasite growth inhibition at 2 uM after 7 days by colorimetric assay; format: functional; design: scale not given: the % may be the effect or the level left
Trypanosoma cruzi [13] = assay: Antiparasitic activity against amastigotes of Trypanosoma cruzi CL Brener expressing Escherichia coli lacZ gene infected in mouse NCTC-929 cells assessed as parasite growth inhibition at 1 uM after 7 days by colorimetric assay; format: functional; design: scale not given: the % may be the effect or the level left
Trypanosoma cruzi [14] = assay: Antiparasitic activity against amastigotes of Trypanosoma cruzi CL Brener expressing Escherichia coli lacZ gene infected in mouse NCTC-929 cells assessed as parasite growth inhibition at 0.5 uM after 7 days by colorimetric assay; format: functional; design: scale not given: the % may be the effect or the level left

## COc1cc([C@@H]2c3cccc([N+](=O)[O-])c3N[C@H](c3ccccc3[N+](=O)[O-])[C@H]2C)ccc1O
[1]
  CC50 at 48 h: 15.9 µM
[2]
  Activity: ND(Insoluble)
Trypanosoma cruzi [3]
  Activity: 82.19%

## COc1cc([C@@H]2c3cccc(C#N)c3N[C@H](c3ccc([N+](=O)[O-])cc3)[C@H]2C)ccc1O
Trypanosoma cruzi [4]
  IC50: 7.66 µM
[1]
  CC50 at 48 h: 213 µM
[5]
  selectivity ratio: 48.6
Trypanosoma cruzi [6]
  IC50: 4.38 µM
[7]
  selectivity ratio: 27.8
[2]
  Activity: 48.76%
Trypanosoma cruzi [8]
  Activity: 33.77%
Trypanosoma cruzi [3]
  Activity: 66.81%
Trypanosoma cruzi [9]
  Activity: 51.5%

## COc1ccc([C@@H]2c3cc(Cl)ccc3N(Cc3ccccc3)C[C@H]2C)cc1
[1]
  CC50 at 48 h: 23.6 µM
[5]
  selectivity ratio: 3.69
Trypanosoma cruzi [6]
  IC50: 6.39 µM
[2]
  Activity: ND(Insoluble)
Trypanosoma cruzi [3]
  Activity: 100%

## COc1cc([C@@H]2c3cccc(N)c3N[C@H](c3ccccc3)[C@H]2C)ccc1O
[1]
  CC50 at 48 h: < 8 µM
Trypanosoma cruzi [6]
  IC50: < 8 µM
[2]
  Activity: 86.9%
Trypanosoma cruzi [3]
  Activity: 98.7%

## COc1ccc([C@@H]2c3cccc([N+](=O)[O-])c3N[C@H](c3ccccc3)[C@H]2C)cc1
[1]
  CC50 at 48 h: 28.4 µM
[2]
  Activity: ND(Insoluble)
Trypanosoma cruzi [3]
  Activity: 87.22%

## COc1ccc([C@@H]2c3c(cccc3[N+](=O)[O-])N[C@H](c3ccccc3)[C@H]2C)cc1
[1]
  CC50 at 48 h: 27.6 µM
[5]
  selectivity ratio: > 3.45
Trypanosoma cruzi [6]
  IC50: < 8 µM
[2]
  Activity: ND(Insoluble)
Trypanosoma cruzi [3]
  Activity: 78.69%

## COc1ccc([C@@H]2c3ccc([N+](=O)[O-])cc3N[C@H](c3ccccc3)[C@H]2C)cc1
[1]
  LC50: ND(Insoluble)
Trypanosoma cruzi [6]
  IC50: < 8 µM
[2]
  Activity: 8.43%
Trypanosoma cruzi [3]
  Activity: 83.67%

## COc1ccc([C@@H]2c3cc(N)ccc3N[C@H](c3ccccc3)[C@H]2C)cc1
[1]
  CC50 at 48 h: 9.56 µM
[5]
  selectivity ratio: > 1.19
Trypanosoma cruzi [6]
  IC50: < 8 µM
[2]
  Activity: 85.85%
Trypanosoma cruzi [3]
  Activity: 97.06%

## COc1ccc([C@@H]2c3ccccc3N[C@H](c3ccccc3)[C@H]2C)cc1
Trypanosoma cruzi [4]
  IC50: 7.1 µM
Trypanosoma cruzi [10]
  Activity: 100%
[1]
  CC50 at 48 h: > 256 µM
[5]
  selectivity ratio: > 43.1
Trypanosoma cruzi [6]
  IC50: 5.94 µM
[7]
  selectivity ratio: > 36
[2]
  Activity: 43.05%
Trypanosoma cruzi [3]
  Activity: 95.98%
Trypanosoma cruzi [9]
  Activity: 52.21%
Trypanosoma cruzi [11]
  Activity: 99.12%

## COc1ccc([C@@H]2c3cc(OC)ccc3N(Cc3ccccc3)C[C@H]2C)cc1
Trypanosoma cruzi [4]
  IC50: 4.27 µM
Trypanosoma cruzi [10]
  Activity: 100%
[1]
  CC50 at 48 h: > 256 µM
[5]
  selectivity ratio: > 33.4
Trypanosoma cruzi [6]
  IC50: 7.67 µM
[7]
  selectivity ratio: > 59.9
[2]
  Activity: 25.02%
Trypanosoma cruzi [12]
  Activity: 25.86%
Trypanosoma cruzi [8]
  Activity: 46.33%
Trypanosoma cruzi [3]
  Activity: 88.64%
Trypanosoma cruzi [9]
  Activity: 100%
Trypanosoma cruzi [11]
  Activity: 100%

## COc1ccc([C@@H]2c3cc(Cl)ccc3N[C@H](c3ccccc3)[C@H]2C)cc1
[1]
  LC50: ND(Insoluble)
Trypanosoma cruzi [6]
  IC50: 7.86 µM
[2]
  Activity: 11.72%
Trypanosoma cruzi [3]
  Activity: 88.62%

## COc1ccc([C@@H]2c3ccccc3N(Cc3ccccc3)C[C@H]2C)cc1
[1]
  LC50: ND(Insoluble)
[2]
  Activity: 42.15%
Trypanosoma cruzi [3]
  Activity: 14.08%

## COc1cc([C@@H]2c3cccc([N+](=O)[O-])c3N[C@H](c3ccc(O)cc3)[C@H]2C)ccc1O
[1]
  CC50 at 48 h: 14.4 µM
[5]
  selectivity ratio: > 1.79
Trypanosoma cruzi [6]
  IC50: < 8 µM
[2]
  Activity: 85.46%
Trypanosoma cruzi [3]
  Activity: 99.73%

## COc1cc([C@@H]2c3ccccc3N[C@H](c3ccccc3)[C@H]2C)ccc1O
[1]
  CC50 at 48 h: 13 µM
[5]
  selectivity ratio: > 1.63
Trypanosoma cruzi [6]
  IC50: < 8 µM
[2]
  Activity: 84.12%
Trypanosoma cruzi [3]
  Activity: 86.23%

## COc1ccc([C@@H]2c3cc([N+](=O)[O-])ccc3N[C@H](c3ccccc3)[C@H]2C)cc1
[1]
  CC50 at 48 h: 16 µM
[5]
  selectivity ratio: > 2
Trypanosoma cruzi [6]
  IC50: < 8 µM
[2]
  Activity: ND(Insoluble)
Trypanosoma cruzi [3]
  Activity: 76.03%

## COc1cc([C@@H]2c3cccc([N+](=O)[O-])c3N[C@H](c3ccc([N+](=O)[O-])cc3)[C@H]2C)ccc1O
[1]
  CC50 at 48 h: < 8 µM
Trypanosoma cruzi [6]
  IC50: < 8 µM
[2]
  Activity: 87.71%
Trypanosoma cruzi [3]
  Activity: 92.82%

## COc1ccc([C@@H]2c3cccc(N)c3N[C@H](c3ccccc3)[C@H]2C)cc1
[1]
  LC50: ND(Insoluble)
Trypanosoma cruzi [6]
  IC50: < 8 µM
[2]
  Activity: 66.33%
Trypanosoma cruzi [3]
  Activity: 79.95%

## COc1cc([C@@H]2c3cccc(C#N)c3N[C@H](c3ccccc3)[C@H]2C)ccc1O
[1]
  CC50 at 48 h: 7.75 µM
[5]
  selectivity ratio: 0.93
Trypanosoma cruzi [6]
  IC50: 8.29 µM
[2]
  Activity: 86.23%
Trypanosoma cruzi [3]
  Activity: 95.56%

## O=C(Cn1ccnc1[N+](=O)[O-])NCc1ccccc1 [BENZNIDAZOLE]
Trypanosoma cruzi [4]
  IC50: 0.8 µM
Trypanosoma cruzi [10]
  Activity: 100%
[1]
  CC50 at 48 h: > 256 µM
[5]
  selectivity ratio: > 9.44
Trypanosoma cruzi [6]
  IC50: 27.1 µM
[7]
  selectivity ratio: > 320
[2]
  Activity: 17.38%
Trypanosoma cruzi [12]
  Activity: 64.37%
Trypanosoma cruzi [8]
  Activity: 74.71%
Trypanosoma cruzi [3]
  Activity: 66.24%
Trypanosoma cruzi [13]
  Activity: 55.64%
Trypanosoma cruzi [9]
  Activity: 96.63%
Trypanosoma cruzi [14]
  Activity: 41.64%
Trypanosoma cruzi [11]
  Activity: 100%

## CCc1ccc2c(c1)[C@@H](c1ccc(OC)cc1)[C@H](C)[C@@H](c1ccccc1)N2
Trypanosoma cruzi [4]
  IC50: 7.13 µM
Trypanosoma cruzi [10]
  Activity: 63.72%
[1]
  CC50 at 48 h: > 256 µM
[5]
  selectivity ratio: > 71.1
Trypanosoma cruzi [6]
  IC50: 3.6 µM
[7]
  selectivity ratio: > 35.9
[2]
  Activity: 0%
Trypanosoma cruzi [8]
  Activity: 19.11%
Trypanosoma cruzi [3]
  Activity: 95.85%
Trypanosoma cruzi [9]
  Activity: 58.63%
Trypanosoma cruzi [11]
  Activity: 47.35%

## COc1cc([C@@H]2c3cccc(C#N)c3N[C@H](c3ccc(O)cc3)[C@H]2C)ccc1O
[1]
  CC50 at 48 h: 12.8 µM
[5]
  selectivity ratio: 1.59
Trypanosoma cruzi [6]
  IC50: < 8 µM
[2]
  Activity: 85.83%
Trypanosoma cruzi [3]
  Activity: 98.75%

## COc1cc([C@@H]2c3cccc([N+](=O)[O-])c3N[C@H](c3ccccc3)[C@H]2C)ccc1O
[1]
  CC50 at 48 h: < 8 µM
Trypanosoma cruzi [6]
  IC50: < 8 µM
[2]
  Activity: 84.75%
Trypanosoma cruzi [3]
  Activity: 86.78%

## COc1ccc([C@@H]2c3cc(OC)ccc3N[C@H](c3ccccc3)[C@H]2C)cc1
Trypanosoma cruzi [4]
  IC50: < 8 µM
[1]
  CC50 at 48 h: > 256 µM
[5]
  selectivity ratio: > 32
Trypanosoma cruzi [6]
  IC50: < 8 µM
[7]
  selectivity ratio: > 32
[2]
  Activity: 0%
Trypanosoma cruzi [3]
  Activity: 53.99%
Trypanosoma cruzi [9]
  Activity: 58.12%
Trypanosoma cruzi [11]
  Activity: 60.71%
